The results in this text go back to ChEMBL document CHEMBL1201862, “PubChem BioAssay data set” (2004).

One assay deals with T1, Cysteine protease ATG4B (Homo sapiens, UniProt Q9Y4P1).
T1 sequence (Q9Y4P1 whole entry): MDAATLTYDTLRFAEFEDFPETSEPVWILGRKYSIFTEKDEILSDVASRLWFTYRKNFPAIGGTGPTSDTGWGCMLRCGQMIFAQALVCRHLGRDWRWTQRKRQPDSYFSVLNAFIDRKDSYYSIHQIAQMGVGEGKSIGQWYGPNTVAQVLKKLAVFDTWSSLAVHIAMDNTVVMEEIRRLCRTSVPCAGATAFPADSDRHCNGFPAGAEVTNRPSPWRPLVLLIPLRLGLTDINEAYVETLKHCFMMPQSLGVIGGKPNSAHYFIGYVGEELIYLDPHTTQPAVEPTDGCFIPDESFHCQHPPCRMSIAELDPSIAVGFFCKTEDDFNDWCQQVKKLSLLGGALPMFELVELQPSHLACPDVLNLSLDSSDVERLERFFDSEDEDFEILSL
The format is functional.

A further assay addresses Phospholipase A2 (Homo sapiens, UniProt P04054). It counts as functional.
Assay [1] deals with T2, Sentrin-specific protease 6 (Homo sapiens, UniProt Q9GZR1).
T2 sequence (Q9GZR1 whole entry): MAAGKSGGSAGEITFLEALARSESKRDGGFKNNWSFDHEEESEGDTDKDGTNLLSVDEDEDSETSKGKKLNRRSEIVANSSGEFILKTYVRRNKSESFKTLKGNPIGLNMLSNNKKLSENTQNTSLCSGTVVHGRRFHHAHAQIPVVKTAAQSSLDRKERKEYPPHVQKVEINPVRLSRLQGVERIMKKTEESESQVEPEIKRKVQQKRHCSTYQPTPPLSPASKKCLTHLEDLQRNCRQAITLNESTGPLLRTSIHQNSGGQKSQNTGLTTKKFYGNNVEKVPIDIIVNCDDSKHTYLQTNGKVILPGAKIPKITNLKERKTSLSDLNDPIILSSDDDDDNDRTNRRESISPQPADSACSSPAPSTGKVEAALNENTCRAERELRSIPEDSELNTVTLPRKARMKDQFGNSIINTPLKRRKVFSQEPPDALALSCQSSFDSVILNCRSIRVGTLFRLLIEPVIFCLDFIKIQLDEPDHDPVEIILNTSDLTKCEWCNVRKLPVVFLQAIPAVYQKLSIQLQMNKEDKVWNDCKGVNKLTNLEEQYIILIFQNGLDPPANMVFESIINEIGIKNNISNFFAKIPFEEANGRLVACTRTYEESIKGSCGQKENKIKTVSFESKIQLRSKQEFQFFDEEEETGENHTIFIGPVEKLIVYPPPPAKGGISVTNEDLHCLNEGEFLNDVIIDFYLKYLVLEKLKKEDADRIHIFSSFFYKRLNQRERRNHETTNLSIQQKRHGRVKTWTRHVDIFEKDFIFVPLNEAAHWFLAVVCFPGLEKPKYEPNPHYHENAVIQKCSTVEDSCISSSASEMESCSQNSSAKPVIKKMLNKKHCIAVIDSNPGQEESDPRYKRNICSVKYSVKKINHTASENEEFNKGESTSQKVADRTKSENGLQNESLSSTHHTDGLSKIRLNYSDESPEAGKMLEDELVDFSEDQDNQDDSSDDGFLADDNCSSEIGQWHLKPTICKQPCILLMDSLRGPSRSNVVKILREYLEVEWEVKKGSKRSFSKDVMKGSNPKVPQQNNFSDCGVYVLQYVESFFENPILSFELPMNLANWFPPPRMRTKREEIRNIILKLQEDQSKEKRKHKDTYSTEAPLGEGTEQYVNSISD
It counts as functional.

Assay [2] concerns the target T3, Sentrin-specific protease 7 (Homo sapiens, UniProt Q9BQF6).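 Note: Luminescence-based dose-response confirmation of ultra-high-throughput screening hits, measuring inhibition of SENP7.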
T3 sequence (Q9BQF6 whole entry): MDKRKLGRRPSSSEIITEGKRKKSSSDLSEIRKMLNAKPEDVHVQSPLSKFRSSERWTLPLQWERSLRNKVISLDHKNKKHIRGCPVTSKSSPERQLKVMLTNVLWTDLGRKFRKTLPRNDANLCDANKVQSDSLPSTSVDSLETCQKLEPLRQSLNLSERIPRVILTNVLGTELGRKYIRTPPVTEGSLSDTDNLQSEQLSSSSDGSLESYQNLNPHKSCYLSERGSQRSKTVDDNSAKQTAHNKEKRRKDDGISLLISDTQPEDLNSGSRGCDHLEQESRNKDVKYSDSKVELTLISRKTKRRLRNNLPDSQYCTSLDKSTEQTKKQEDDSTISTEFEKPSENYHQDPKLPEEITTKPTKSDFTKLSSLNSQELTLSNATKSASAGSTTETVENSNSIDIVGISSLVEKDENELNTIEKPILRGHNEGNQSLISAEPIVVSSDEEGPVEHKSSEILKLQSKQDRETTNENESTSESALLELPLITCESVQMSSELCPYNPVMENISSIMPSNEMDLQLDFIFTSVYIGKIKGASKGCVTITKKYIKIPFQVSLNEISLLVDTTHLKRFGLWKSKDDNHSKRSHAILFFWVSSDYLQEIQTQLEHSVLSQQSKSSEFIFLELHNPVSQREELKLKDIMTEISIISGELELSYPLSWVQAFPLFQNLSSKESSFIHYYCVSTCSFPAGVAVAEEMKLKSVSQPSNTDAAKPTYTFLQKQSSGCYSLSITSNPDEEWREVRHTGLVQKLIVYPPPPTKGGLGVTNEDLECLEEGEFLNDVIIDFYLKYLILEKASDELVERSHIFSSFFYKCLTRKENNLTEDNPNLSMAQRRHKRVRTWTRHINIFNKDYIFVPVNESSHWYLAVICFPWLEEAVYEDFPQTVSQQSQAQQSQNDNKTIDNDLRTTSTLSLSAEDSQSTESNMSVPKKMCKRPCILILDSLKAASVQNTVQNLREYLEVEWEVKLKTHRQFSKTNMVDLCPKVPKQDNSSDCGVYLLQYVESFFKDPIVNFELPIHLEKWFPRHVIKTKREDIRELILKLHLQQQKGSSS
It counts as functional.

The next assay has as its target T4, Streptokinase A (Streptococcus pyogenes serotype M1, UniProt P10520).
T4 sequence (P10520 whole entry): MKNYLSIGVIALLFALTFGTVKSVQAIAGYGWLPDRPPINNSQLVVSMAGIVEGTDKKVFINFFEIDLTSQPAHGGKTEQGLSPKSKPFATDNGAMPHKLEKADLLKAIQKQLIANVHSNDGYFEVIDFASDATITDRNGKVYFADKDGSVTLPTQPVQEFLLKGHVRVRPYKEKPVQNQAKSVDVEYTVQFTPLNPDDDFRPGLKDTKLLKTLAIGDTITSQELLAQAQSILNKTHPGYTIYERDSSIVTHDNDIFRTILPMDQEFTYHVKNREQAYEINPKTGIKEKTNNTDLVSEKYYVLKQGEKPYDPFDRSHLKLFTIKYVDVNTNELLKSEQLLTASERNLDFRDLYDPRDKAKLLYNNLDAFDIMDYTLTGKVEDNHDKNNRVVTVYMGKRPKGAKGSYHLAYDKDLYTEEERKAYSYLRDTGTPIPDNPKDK
Put plainly: S. pyogenes streptokinase expression inhibitors, potency, dose response, plasminogen activation absorbance, OD405 (AID 1914).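 Note: secreted streptokinase activity via plasminogen activation per viability signal from cell pellet.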 The format is functional, Streptococcus pyogenes M1 GAS.

The next assay has as its system Streptococcus. As to the kind of experiment: Group A Streptococcus viability loss, dose response, counter-screen for streptokinase expression inhibitor project, luminescence, BacTiterGlo (AID 1915).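 Note: potency for reduction of bacterial viability or growth.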 It counts as functional, organism-based. A general note: The purpose of a counterscreen is to sort out artefacts and off-target activity.
In assay [3] the target is T5, Sentrin-specific protease 8 (Homo sapiens, UniProt Q96LD8).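 Note: luminescence read-out of SENP8 inhibition, dose-response confirmation following an ultra-high-throughput screen.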
T5 sequence (Q96LD8 whole entry): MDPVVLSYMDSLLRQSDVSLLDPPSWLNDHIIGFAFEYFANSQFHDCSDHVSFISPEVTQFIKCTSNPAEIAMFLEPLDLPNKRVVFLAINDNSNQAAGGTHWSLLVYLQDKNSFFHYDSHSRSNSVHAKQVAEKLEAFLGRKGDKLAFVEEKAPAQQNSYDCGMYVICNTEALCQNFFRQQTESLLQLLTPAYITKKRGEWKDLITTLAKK
It counts as functional.

For assay [4], the system named is Streptococcus sp. 'group A'. As to the kind of experiment: growth inhibition of control SK(-) GAS strain, dose response, counter-screen for streptokinase expression inhibitor project, luminescence, kanamycin, BacTiterGlo, confirmation (AID 1900). The format is functional, organism-based.
A further assay addresses T6, Caspase-3 (Homo sapiens, UniProt P42574).
T6 sequence (P42574 whole entry): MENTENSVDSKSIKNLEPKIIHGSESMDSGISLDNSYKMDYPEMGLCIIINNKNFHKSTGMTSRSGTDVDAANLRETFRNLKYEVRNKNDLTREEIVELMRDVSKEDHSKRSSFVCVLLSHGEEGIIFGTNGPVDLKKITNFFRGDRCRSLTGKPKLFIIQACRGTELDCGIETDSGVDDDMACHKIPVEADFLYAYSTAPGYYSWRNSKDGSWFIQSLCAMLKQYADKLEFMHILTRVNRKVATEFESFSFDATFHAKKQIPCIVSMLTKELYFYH
It counts as functional.

The target of assay [5] is Heat shock protein HSP 90-alpha (Homo sapiens, UniProt P07900). It counts as functional, organism-based.
The subject of a further assay is H9c2. As to the kind of experiment: cells. It counts as functional, cell-based. The following applies: Rattus norvegicus, H9c2, Myocardium.
The target of the next assay is T7, Aminopeptidase N (Plasmodium falciparum FcB1/Columbia, UniProt O96935).
T7 sequence (O96935 whole entry): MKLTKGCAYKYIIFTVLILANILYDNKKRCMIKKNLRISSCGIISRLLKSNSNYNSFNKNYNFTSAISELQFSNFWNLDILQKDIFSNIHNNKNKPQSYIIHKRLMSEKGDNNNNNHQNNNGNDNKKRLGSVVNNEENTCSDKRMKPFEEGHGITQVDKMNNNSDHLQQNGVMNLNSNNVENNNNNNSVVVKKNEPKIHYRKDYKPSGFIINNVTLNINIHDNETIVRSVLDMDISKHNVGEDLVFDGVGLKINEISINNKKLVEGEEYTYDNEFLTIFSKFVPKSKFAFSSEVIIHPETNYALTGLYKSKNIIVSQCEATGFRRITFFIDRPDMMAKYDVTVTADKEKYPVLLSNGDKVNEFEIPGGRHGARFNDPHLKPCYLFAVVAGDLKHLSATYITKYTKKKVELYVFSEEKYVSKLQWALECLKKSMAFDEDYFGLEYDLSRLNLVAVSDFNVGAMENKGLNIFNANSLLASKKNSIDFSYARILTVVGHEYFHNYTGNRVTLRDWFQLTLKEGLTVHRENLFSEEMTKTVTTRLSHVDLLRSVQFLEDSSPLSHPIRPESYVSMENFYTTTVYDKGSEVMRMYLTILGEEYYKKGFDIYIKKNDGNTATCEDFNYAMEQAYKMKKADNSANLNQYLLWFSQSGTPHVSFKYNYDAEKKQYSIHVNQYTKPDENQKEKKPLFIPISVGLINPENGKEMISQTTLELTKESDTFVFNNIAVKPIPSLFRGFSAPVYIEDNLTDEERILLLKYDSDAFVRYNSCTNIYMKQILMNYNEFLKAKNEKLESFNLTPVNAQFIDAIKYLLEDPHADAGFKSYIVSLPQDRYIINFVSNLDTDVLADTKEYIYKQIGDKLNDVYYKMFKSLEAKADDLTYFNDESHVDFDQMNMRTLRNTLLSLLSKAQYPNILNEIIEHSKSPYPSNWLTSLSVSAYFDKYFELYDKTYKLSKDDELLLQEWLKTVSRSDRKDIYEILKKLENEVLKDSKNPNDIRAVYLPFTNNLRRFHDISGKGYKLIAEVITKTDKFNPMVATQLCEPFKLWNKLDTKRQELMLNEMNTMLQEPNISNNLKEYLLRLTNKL
As to the kind of experiment: P. falciparum M1AAP inhibitors, biochemical, fluorogenic H-Leu-NHMec substrate, 1536-well (AID 1445). Details: species or system Plasmodium falciparum 3D7, 3D7.

The nature of assay [6]: HEp-2 cell cytotoxicity, dose response, cytotoxicity control for RSV inhibitor project, HTS (AID 2410). It counts as functional. The following applies: human respiratory syncytial virus.

Structures are written as SMILES. Calls of active or inactive are those of the source.

Phospholipase A2, sequence (P04054 whole entry): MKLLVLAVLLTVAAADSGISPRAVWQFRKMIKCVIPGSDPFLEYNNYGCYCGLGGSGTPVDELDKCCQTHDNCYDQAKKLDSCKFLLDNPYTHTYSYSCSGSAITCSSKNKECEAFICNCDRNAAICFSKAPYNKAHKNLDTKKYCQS

As a reminder, the IC50 is the concentration that inhibits the measured activity by half. As to `C=CCn1c(-c2oc3nc(-c4ccccc4)cc(-c4ccccc4)c3c2N)n[nH]c1=S`, the IC50 on Cysteine protease ATG4B was 21.5 µM (inactive); at Phospholipase A2, 20.7 µM (inactive).
The corresponding values for `O=C(Nc1nc2c(cc3c4c(cccc42)CC3)s1)c1ccccc1Cl` are > 80 µM (inactive) and 15.7 µM (active).
The EC50 is the concentration giving half of the maximal effect. `OC(c1ccc(OCc2ccccc2)cc1)c1nnc(-c2ccccc2)o1` (configuration not stated): the IC50 was 33.2 µM (active) in assay [1], 12.8 µM (active) in [2], 75.6 µM (active) in assay [3] and 69.2 µM (active) at Caspase-3. Further, the concentration giving a half-maximal response (EC50) is 77.8 µM (active) on Streptokinase A, > 150 µM (not active) with Streptococcus and 19 µM (active) in assay [4].
Usually AC50 stands for the midpoint of the concentration-response curve, whichever way the signal moves. Consider `C=CCn1c(C)cc(C(=O)CSc2nnc(NCc3ccccc3)s2)c1C`, for which, in assay [5], the AC50 is 4.03 µM (active).
Consider `CN(C)S(=O)(=O)c1ccc2[nH]cc(/C=C/c3nc4ccccc4c(=O)n3-c3ccccc3)c2c1`, for which the IC50 was > 79 µM (inactive) in the assay on H9c2, 18.6 µM (active) at Cysteine protease ATG4B and 46.6 µM (inactive) at Phospholipase A2.
Consider `COc1ccc2oc3ccc(OC)cc3c(=O)c2c1`, for which the IC50 is 15.1 µM (active) in assay [1], 9.8 µM (active) in assay [2], 69.1 µM (active) in assay [3] and 11 µM (active) at Caspase-3.
With `Cc1cccc(C)c1OCc1nc2ccccc2c(=O)n1/N=C/c1ccc(OCC(=O)O)cc1`, the IC50 is < 1 µM (active) on Aminopeptidase N, 14.7 µM (active) at Cysteine protease ATG4B and 9.81 µM (active) at Phospholipase A2.
On to `Cc1nc(N/N=C\c2ccc3c(c2)OCO3)sc1C`, for which the IC50 is 39.1 µM (active) in [1], 12 µM (active) in [2], 72.7 µM (active) in assay [3] and 33.2 µM (active) on Caspase-3. Besides, the EC50 is > 150 µM (not active) at Streptokinase A, 31.7 µM (active) in the assay with Streptococcus and 23.6 µM (active) in assay [4].
Usually CC50 stands for the concentration that lowers cell viability or growth by half. For the compound `Cc1ccc(S(=O)(=O)Nc2ccccc2/C=N/c2nc3ccccc3n2C(C)C)cc1`, the CC50 in [6] is 14.9 µM (active). Further, the IC50 was 15.1 µM (active) on Cysteine protease ATG4B and 13.2 µM (active) on Phospholipase A2.
